# Data from patent US8481538B2, “Heterocyclic inhibitors of c-Met and uses thereof” (Vertex Pharmaceuticals Incorporated, priority 2006, dated 2013).
# Biological target: c-Met (Homo sapiens, UniProt P08581)
# Assay: Ki determination for the inhibition of c-Met (standard radiometric kinase assay)
# Type: biochemical
# Details: radiometric 33P-ATP assay, 1.0 nM c-Met, 35 μM ATP, 0.5 mg/mL polyE4Y, competitive tight-binding fit
# Experimental: Ki Determination for the Inhibition of c-Met
# Compounds of the invention were screened for their ability to inhibit c-Met kinase activity using a standard radiometric assay. Briefly, in this kinase assay the transfer of the terminal ^33P-phosphate in ^33P-ATP to substrate polyE4Y is interrogated. The assay was carried out in 96-well plates to a final volume of 100 μL per well containing 1.0 nM c-Met, 100 mM HEPES (pH 7.5), 10 mM MgCl2, 25 mM NaCl, 0.01% BSA, 1 mM DTT, 0.5 mg/mL polyE4Y, and 35 μM ATP. Accordingly, compounds of the invention were dissolved in DMSO to make 10 mM initial stock solutions. Serial dilutions in DMSO were then made to obtain the final solutions for the assay. A 1.5 μL aliquot of DMSO or inhibitor in DMSO was added to each well. The reaction was initiated by the addition of ^33P-ATP and polyE4Y (obtained from Sigma). After 20 min, the reaction was quenched with 50 μL of 30% trichloroacetic acid (TCA) containing 4 mM ATP. The reaction mixture was transferred to the 0.66 mm GF filter plates (Corning) and washed three times with 5% TCA. Following the addition of 50 μL of Ultimate Gold™ high efficiency scintillant (Packard Bioscience), the samples were counted in a Packard TopCount NXT Microplate Scintillation and Luminescence Counter (Packard BioScience). The Ki values were calculated using Microsoft Excel Solver macros to fit the data to the kinetic model for competitive tight-binding inhibition.
# c-Met, sequence (P08581 25-1390): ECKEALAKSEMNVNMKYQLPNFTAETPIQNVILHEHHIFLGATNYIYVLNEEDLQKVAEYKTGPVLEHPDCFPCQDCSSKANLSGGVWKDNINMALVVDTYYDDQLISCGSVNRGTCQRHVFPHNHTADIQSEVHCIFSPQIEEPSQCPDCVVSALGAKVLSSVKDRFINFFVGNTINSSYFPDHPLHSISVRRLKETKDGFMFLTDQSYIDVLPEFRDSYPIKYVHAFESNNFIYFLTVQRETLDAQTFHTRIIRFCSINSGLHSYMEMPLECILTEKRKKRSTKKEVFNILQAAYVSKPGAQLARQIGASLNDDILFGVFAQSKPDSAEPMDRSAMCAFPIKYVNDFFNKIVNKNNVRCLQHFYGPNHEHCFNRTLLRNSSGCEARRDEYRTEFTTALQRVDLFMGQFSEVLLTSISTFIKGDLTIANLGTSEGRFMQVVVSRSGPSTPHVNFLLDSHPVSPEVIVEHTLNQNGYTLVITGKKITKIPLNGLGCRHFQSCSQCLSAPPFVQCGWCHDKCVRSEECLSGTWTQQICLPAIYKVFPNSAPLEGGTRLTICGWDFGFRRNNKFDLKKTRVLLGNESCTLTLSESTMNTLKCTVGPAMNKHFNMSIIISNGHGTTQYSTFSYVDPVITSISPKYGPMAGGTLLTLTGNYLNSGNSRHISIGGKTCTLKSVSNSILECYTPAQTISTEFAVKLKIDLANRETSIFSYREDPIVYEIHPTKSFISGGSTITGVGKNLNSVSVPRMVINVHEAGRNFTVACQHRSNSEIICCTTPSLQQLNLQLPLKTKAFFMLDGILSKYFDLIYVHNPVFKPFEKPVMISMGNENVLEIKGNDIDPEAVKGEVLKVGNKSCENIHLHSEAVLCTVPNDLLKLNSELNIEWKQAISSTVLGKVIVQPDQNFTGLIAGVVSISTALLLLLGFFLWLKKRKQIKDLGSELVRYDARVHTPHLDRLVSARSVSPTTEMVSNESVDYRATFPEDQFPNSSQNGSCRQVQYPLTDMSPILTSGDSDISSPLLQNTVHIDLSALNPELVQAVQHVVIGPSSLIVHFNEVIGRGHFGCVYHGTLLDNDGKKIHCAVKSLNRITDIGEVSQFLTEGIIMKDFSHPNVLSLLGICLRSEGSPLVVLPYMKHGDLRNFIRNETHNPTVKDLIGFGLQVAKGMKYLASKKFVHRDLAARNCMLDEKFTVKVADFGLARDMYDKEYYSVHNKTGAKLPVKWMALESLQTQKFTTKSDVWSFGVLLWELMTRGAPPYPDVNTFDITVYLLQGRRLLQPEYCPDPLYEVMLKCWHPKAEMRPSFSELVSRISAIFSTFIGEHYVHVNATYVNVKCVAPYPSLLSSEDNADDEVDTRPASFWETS
row,Structure (SMILES),Ki [µM]
1,CN(Cc1cccnc1)Cc1nnc2ccc(Nc3cccc(Cl)c3)nn12 [Compound 1],≤ 0.25
2,"Clc1cccc(Nc2ccc3nnc(COCc4cccnc4)n3n2)c1 [Compound 2, 3-(((pyridin-3-yl)methoxy)methyl)-N-(3-chlorophenyl)-[1,2,4]triazolo[4,3-b]pyridazin-6-amine]",≤ 0.25
3,Clc1cccc(Nc2ccc3nnc(CNCc4ccccn4)n3n2)c1 [Compound 3],> 2.5
4,Clc1cccc(Nc2ccc3nnc(CNCc4cccnc4)n3n2)c1 [Compound 4],> 2.5
5,O=C(Cc1nnc2ccc(Nc3cccc(Cl)c3)nn12)Nc1cnccn1 [Compound 5],> 2.5
6,O=C(Cc1nnc2ccc(Nc3cccc(Cl)c3)nn12)NCc1cccnc1 [Compound 6],> 2.5
7,CN(C(=O)Cc1nnc2ccc(Nc3cccc(Cl)c3)nn12)c1ccccn1 [Compound 7],> 2.5
8,Nc1cccnc1NC(=O)Cc1nnc2ccc(Nc3cccc(Cl)c3)nn12 [Compound 8],0.25 to 2.5
9,C[C@@H](NC(=O)c1cccnc1)c1nnc2ccc(Nc3cccc(Cl)c3)nn12 [Compound 10],> 2.5
10,"CN(Cc1cccnc1N)Cc1nnc2ccc(Nc3cccc(Cl)c3)nn12 [Compound 11, N-(3-chlorophenyl)-3-(2-(N-((2-aminopyridin-3-yl)methyl)-N-(methyl)amino)methyl)-[1,2,4]triazolo[4,3-b]pyridazin-6-amine]",0.25 to 2.5
11,CN(Cc1nnc2ccc(Nc3cccc(Cl)c3)nn12)C(=O)c1cccnc1 [Compound 12],> 2.5
12,C[C@@H](NC(=O)c1cccnc1N)c1nnc2ccc(Nc3cccc(Cl)c3)nn12 [Compound 13],0.25 to 2.5
13,"C[C@@H](NC(=O)c1nccnc1N)c1nnc2ccc(Nc3cccc(Cl)c3)nn12 [Compound 14, N—((R)-1-(6-(3-chlorophenylamino)-[1,2,4]triazolo[4,3-b]pyridazin-3-yl)ethyl)-3-aminopyrazine-2-carboxamide]",≤ 0.25
14,"C[C@@H](NC(=O)Nc1cccnc1)c1nnc2ccc(Nc3cccc(Cl)c3)nn12 [Compound 15, 1-((R)-1-(6-(3-chlorophenylamino)-[1,2,4]triazolo[4,3-b]pyridazin-3-yl)ethyl)-3-(pyridin-3-yl)urea]",0.25 to 2.5
15,C[C@@H](NC(=O)c1cnc2ccccc2n1)c1nnc2ccc(Nc3cccc(Cl)c3)nn12 [Compound 16],0.25 to 2.5
16,C[C@@H](NC(=O)c1cc(Br)cnc1N)c1nnc2ccc(Nc3cccc(Cl)c3)nn12 [Compound 17],0.25 to 2.5
17,C[C@@H](NC(=O)c1nc(Br)cnc1N)c1nnc2ccc(Nc3cccc(Cl)c3)nn12 [Compound 18],0.25 to 2.5
18,Clc1cccc(Nc2ccc3nnc(COCc4cnccn4)n3n2)c1 [Compound 19],> 2.5
19,Clc1cccc(Nc2ccc3nnc(CNc4n[nH]c5ncccc45)n3n2)c1 [Compound 20],≤ 0.25
20,C[C@@H](NC(=O)c1nc(-c2ccccc2)cnc1N)c1nnc2ccc(Nc3cccc(Cl)c3)nn12 [Compound 21],≤ 0.25
21,CC(=O)Nc1ccc(-c2cnc(N)c(C(=O)N[C@H](C)c3nnc4ccc(Nc5cccc(Cl)c5)nn34)n2)cc1 [Compound 22],≤ 0.25
22,C[C@@H](NC(=O)c1cc(-c2ccccc2)cnc1N)c1nnc2ccc(Nc3cccc(Cl)c3)nn12 [Compound 23],≤ 0.25

row,Structure (SMILES),Ki [µM]
1,CC(=O)Nc1ccc(-c2cnc(N)c(C(=O)N[C@H](C)c3nnc4ccc(Nc5cccc(Cl)c5)nn34)c2)cc1 [Compound 24],≤ 0.25
2,CCC(C)Nc1ccc2nnc([C@@H](C)NC(=O)c3nc(-c4ccccc4)cnc3N)n2n1 (stereo partly shown) [Compound 25],0.25 to 2.5
3,CCC(C)Nc1ccc2nnc([C@@H](C)NC(=O)c3nc(-c4ccc(NC(C)=O)cc4)cnc3N)n2n1 (stereo partly shown) [Compound 26],0.25 to 2.5
4,C[C@@H](NC(=O)c1nc(-c2cnn(C)c2)cnc1N)c1nnc2ccc(Nc3cccc(Cl)c3)nn12 [Compound 27],≤ 0.25
5,C[C@H](NC(=O)c1nc(-c2ccccc2)cnc1N)c1nnc2ccc(Nc3cccc(Cl)c3)nn12 [Compound 28],0.25 to 2.5
6,C[C@@H](NC(=O)c1nc(-c2cccs2)cnc1N)c1nnc2ccc(Nc3cccc(Cl)c3)nn12 [Compound 29],≤ 0.25
7,Nc1ncc(-c2ccccc2)nc1C(=O)N[C@H](CO)c1nnc2ccc(Nc3cccc(Cl)c3)nn12 [Compound 30],≤ 0.25
8,C[C@@H](NC(=O)c1nc(-c2ccsc2)cnc1N)c1nnc2ccc(Nc3cccc(Cl)c3)nn12 [Compound 31],≤ 0.25
9,C[C@@H](NC(=O)c1nc(-c2ccoc2)cnc1N)c1nnc2ccc(Nc3cccc(Cl)c3)nn12 [Compound 32],≤ 0.25
10,C[C@@H](NC(=O)c1nc(C2=CCCC2)cnc1N)c1nnc2ccc(Nc3cccc(Cl)c3)nn12 [Compound 33],≤ 0.25
11,CC[C@@H](NC(=O)c1nc(-c2ccccc2)cnc1N)c1nnc2ccc(Nc3cccc(Cl)c3)nn12 [Compound 34],0.25 to 2.5
12,CC(C)[C@@H](NC(=O)c1nc(-c2ccccc2)cnc1N)c1nnc2ccc(Nc3cccc(Cl)c3)nn12 [Compound 35],> 2.5
13,C#Cc1cnc(N)c(C(=O)N[C@H](C)c2nnc3ccc(Nc4cccc(Cl)c4)nn23)n1 [Compound 36],≤ 0.25
14,C=Cc1cnc(N)c(C(=O)N[C@H](C)c2nnc3ccc(Nc4cccc(Cl)c4)nn23)n1 [Compound 37],≤ 0.25
15,C[C@@H](NC(=O)c1nc(C#N)cnc1N)c1nnc2ccc(Nc3cccc(Cl)c3)nn12 [Compound 38],≤ 0.25
16,C[C@@H](NC(=O)c1nc(C(N)=O)cnc1N)c1nnc2ccc(Nc3cccc(Cl)c3)nn12 [Compound 39],≤ 0.25
17,C[C@@H](NC(=O)c1nc(C2CCCC2)cnc1N)c1nnc2ccc(Nc3cccc(Cl)c3)nn12 [Compound 40],≤ 0.25
18,C[C@@H](NC(=O)c1nc(-c2cccnc2)cnc1N)c1nnc2ccc(Nc3cccc(Cl)c3)nn12 [Compound 41],≤ 0.25
19,C[C@@H](NC(=O)c1nc(-c2ccncc2)cnc1N)c1nnc2ccc(Nc3cccc(Cl)c3)nn12 [Compound 42],≤ 0.25
20,C[C@@H](NC(=O)c1nc(C#CCO)cnc1N)c1nnc2ccc(Nc3cccc(Cl)c3)nn12 [Compound 43],≤ 0.25
21,C[C@@H](NC(=O)c1nc(C#CCCO)cnc1N)c1nnc2ccc(Nc3cccc(Cl)c3)nn12 [Compound 44],≤ 0.25
22,C[C@@H](NC(=O)c1nc(C#CC2(O)CCCC2)cnc1N)c1nnc2ccc(Nc3cccc(Cl)c3)nn12 [Compound 45],0.25 to 2.5

row,Structure (SMILES),Ki [µM]
1,CCC(O)C#Cc1cnc(N)c(C(=O)N[C@H](C)c2nnc3ccc(Nc4cccc(Cl)c4)nn23)n1 (stereo partly shown) [Compound 46],≤ 0.25
2,CCN(CC)CC#Cc1cnc(N)c(C(=O)N[C@H](C)c2nnc3ccc(Nc4cccc(Cl)c4)nn23)n1 [Compound 47],≤ 0.25
3,C[C@@H](NC(=O)c1nc(C#Cc2ccccc2)cnc1N)c1nnc2ccc(Nc3cccc(Cl)c3)nn12 [Compound 48],0.25 to 2.5
4,C[C@@H](NC(=O)c1nc(C#CCC2CCCC2)cnc1N)c1nnc2ccc(Nc3cccc(Cl)c3)nn12 [Compound 49],0.25 to 2.5
5,CCCC#Cc1cnc(N)c(C(=O)N[C@H](C)c2nnc3ccc(Nc4cccc(Cl)c4)nn23)n1 [Compound 50],0.25 to 2.5
6,C[C@@H](NC(=O)c1nc(C#CC(C)(C)C)cnc1N)c1nnc2ccc(Nc3cccc(Cl)c3)nn12 [Compound 51],0.25 to 2.5
7,CCc1cnc(N)c(C(=O)N[C@H](C)c2nnc3ccc(Nc4cccc(Cl)c4)nn23)n1 [Compound 52],0.25 to 2.5
8,C[C@@H](NC(=O)c1nc(C#Cc2ccccn2)cnc1N)c1nnc2ccc(Nc3cccc(Cl)c3)nn12 [Compound 53],0.25 to 2.5
9,Cc1n[nH]c(C)c1-c1cnc(N)c(C(=O)N[C@H](C)c2nnc3ccc(Nc4cccc(Cl)c4)nn23)n1 [Compound 54],≤ 0.25
10,C[C@@H](NC(=O)c1nc(-c2ccc(CN3CCCC3)cc2)cnc1N)c1nnc2ccc(Nc3cccc(Cl)c3)nn12 [Compound 55],≤ 0.25
11,C[C@@H](NC(=O)c1nc(C#Cc2cccnc2)cnc1N)c1nnc2ccc(Nc3cccc(Cl)c3)nn12 [Compound 56],0.25 to 2.5
12,C[C@@H](NC(=O)c1nc(C#Cc2ccncc2)cnc1N)c1nnc2ccc(Nc3cccc(Cl)c3)nn12 [Compound 57],0.25 to 2.5
13,CC(=O)Nc1cccc(-c2cnc(N)c(C(=O)N[C@H](C)c3nnc4ccc(Nc5cccc(Cl)c5)nn34)n2)c1 [Compound 58],≤ 0.25
14,C[C@@H](NC(=O)c1nc(C#CC2CC2)cnc1N)c1nnc2ccc(Nc3cccc(Cl)c3)nn12 [Compound 61],0.25 to 2.5
15,C[C@@H](NC(=O)c1nc(-c2cnn(C3CCNCC3)c2)cnc1N)c1nnc2ccc(Nc3cccc(Cl)c3)nn12 [Compound 62],≤ 0.25
16,C[C@@H](NC(=O)c1cc(-c2cnn(C)c2)cnc1N)c1nnc2sc(Nc3cccc(Cl)c3)nn12 [Compound 63],0.25 to 2.5
17,C[C@@H](NC(=O)c1nc(-c2ccccc2)cnc1N)c1nnc2ccc(Cl)nn12 [Compound 64],0.25 to 2.5
18,C[C@@H](NC(=O)c1nc(-c2ccc(CN)cc2)cnc1N)c1nnc2ccc(Nc3cccc(Cl)c3)nn12 [Compound 65],≤ 0.25
19,C[C@@H](NC(=O)c1nc(-c2ccc(CN3CC[C@@H](O)C3)cc2)cnc1N)c1nnc2ccc(Nc3cccc(Cl)c3)nn12 [Compound 66],≤ 0.25
20,C[C@@H](NC(=O)c1nc(-c2ccc(CN3CC[C@H](O)C3)cc2)cnc1N)c1nnc2ccc(Nc3cccc(Cl)c3)nn12 [Compound 67],≤ 0.25
